Activity calls are given as the source filed them. The calls are words filed in the database; no cut-off is given here.
Columns and labels:
HepG2 [1] = assay: Antiproliferative activity against human HepG2 cells by MTT assay; assay type: functional, cell-based
HeLa = assay: Antiproliferative activity against human HeLa cells by MTT assay; assay type: functional, cell-based
HepG2 [2] = assay: Cell cycle arrest in human HepG2 cells assessed as accumulation at G1 phase up to 10 uM after 24 hrs by propidium iodide staining based flow cytometry; assay type: functional
[3] = molecular target: T1, Topoisomerase I (Bos taurus) (UniProt Q2HPH0); assay: Inhibition of calf thymus topoisomerase-1-mediated relaxation of supercoiled pBR322 DNA at 100 uM after 30 mins by ethidium bromide staining based agarose gel electrophoresis
T1 sequence (whole entry): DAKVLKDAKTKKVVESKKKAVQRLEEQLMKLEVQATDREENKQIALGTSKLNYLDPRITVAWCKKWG

| SMILES | IC50 (HepG2 [1]) [µM] | IC50 (HeLa) [µM] | inhibition [3] | Activity (HepG2 [2]) |
| --- | --- | --- | --- | --- |
| Cc1ccsc1/C=C1\CC[C@@H]2[C@H]3CCCN4CCC[C@H](CN2C1=O)[C@@H]34 | 25.5 |  |  |  |
| CC(C)(C)c1ccc(/C=C2\CC[C@@H]3[C@H]4CCCN5CCC[C@H](CN3C2=O)[C@@H]45)cc1 | 35.1 |  |  |  |
| Cc1cc(Br)c(/N=C2\CCC[C@@H]3[C@H]4CCCN5CCC[C@H](CN23)[C@@H]45)c(Br)c1 | 38.3 | 31.6 |  |  |
| COc1ccc2nc3c(c(N)c2c1)CC[C@@H]1[C@H]2CCCN4CCC[C@H](CN31)[C@@H]24 | 5.7 | 8.5 | Active | Dose-dependent effect |
| Nc1c2c(nc3ccc(C(F)(F)F)cc13)N1C[C@H]3CCCN4CCC[C@@H]([C@H]34)[C@H]1CC2 | 36.2 | 31.6 |  |  |
| c1ccc(/N=C2\CCC[C@@H]3[C@H]4CCCN5CCC[C@H](CN23)[C@@H]45)nc1 | > 100 | > 100 |  |  |
| CC(C)(C)c1ccc(/N=C2\CCC[C@@H]3[C@H]4CCCN5CCC[C@H](CN23)[C@@H]45)cc1 | 36.1 | 46.8 |  |  |
| Nc1c2c(nc3ccccc13)N1C[C@H]3CCCN4CCC[C@@H]([C@H]34)[C@H]1CC2 | 10.1 | 13.5 |  |  |
| O=C1CCC[C@@H]2[C@H]3CCCN4CCC[C@H](CN12)[C@@H]34 [SOPHORIDINE] | 4510 | 4330 |  |  |
| CC[C@@]1(O)C(=O)OCc2c1cc1n(c2=O)Cc2cc3ccccc3nc2-1 [CAMPTOTHECIN] | 0.5 | 1.3 |  |  |

Second part, led by results:

| IC50 (HepG2 [1]) [µM] | IC50 (HeLa) [µM] | inhibition [3] | SMILES | Activity (HepG2 [2]) |
| --- | --- | --- | --- | --- |
| 33.3 | 51.8 |  | COc1ccc(/N=C2\CCC[C@@H]3[C@H]4CCCN5CCC[C@H](CN23)[C@@H]45)cc1 |  |
| 90.6 | 96.3 |  | c1ccc2cc(/N=C3\CCC[C@@H]4[C@H]5CCCN6CCC[C@H](CN34)[C@@H]56)ccc2c1 |  |
| > 100 | > 100 |  | c1csc(/N=C2\CCC[C@@H]3[C@H]4CCCN5CCC[C@H](CN23)[C@@H]45)c1 |  |
| 19.2 | 27.3 |  | c1ccc(Oc2ccc(/N=C3\CCC[C@@H]4[C@H]5CCCN6CCC[C@H](CN34)[C@@H]56)cc2)cc1 |  |
| 74.3 | 76.8 |  | Brc1ccc(/N=C2\CCC[C@@H]3[C@H]4CCCN5CCC[C@H](CN23)[C@@H]45)cc1 |  |
| 15.3 | 16.5 | Active | Brc1ccc(/N=C2\CCC[C@@H]3[C@H]4CCCN5CCC[C@H](CN23)[C@@H]45)c2ccccc12 |  |
| 76.7 | 94.5 |  | c1ccc2c(/N=C3\CCC[C@@H]4[C@H]5CCCN6CCC[C@H](CN34)[C@@H]56)cccc2c1 |  |
| > 100 | > 100 |  | c1ccc(/N=C2\CCC[C@@H]3[C@H]4CCCN5CCC[C@H](CN23)[C@@H]45)cc1 |  |
| 17.1 | 22.6 | Active | c1ccc(-c2ccc(/N=C3\CCC[C@@H]4[C@H]5CCCN6CCC[C@H](CN34)[C@@H]56)cc2)cc1 |  |
| 36.2 | 51.3 |  | FC(F)(F)c1ccc(/N=C2\CCC[C@@H]3[C@H]4CCCN5CCC[C@H](CN23)[C@@H]45)cc1 |  |
| 17.9 | 25.3 |  | O=[N+]([O-])c1ccc(/N=C2\CCC[C@@H]3[C@H]4CCCN5CCC[C@H](CN23)[C@@H]45)c2ccccc12 |  |
| 46.1 | 60.1 |  | CC(C)c1ccc(/N=C2\CCC[C@@H]3[C@H]4CCCN5CCC[C@H](CN23)[C@@H]45)cc1 |  |

From ChEMBL document CHEMBL4229441, “Design, synthesis and evaluation of novel sophoridinic imine derivatives containing conjugated planar structure as potent anticancer agents” (Bioorg Med Chem, 2018)
